Measured values as given in PMC7072352, “Venetoclax, a BCL-2 Inhibitor, Enhances the Efficacy of Chemotherapeutic Agents in Wild-Type ABCG2-Overexpression-Mediated MDR Cancer Cells” (Cancers, 2020).

Molecular target: T1, ABCG2 (breast cancer resistance protein, BCRP) (Homo sapiens, UniProt Q9UNQ0)
T1 construct: wild-type ABCG2 (R482) in overexpressing cell membranes
T1 sequence (Q9UNQ0 1-655): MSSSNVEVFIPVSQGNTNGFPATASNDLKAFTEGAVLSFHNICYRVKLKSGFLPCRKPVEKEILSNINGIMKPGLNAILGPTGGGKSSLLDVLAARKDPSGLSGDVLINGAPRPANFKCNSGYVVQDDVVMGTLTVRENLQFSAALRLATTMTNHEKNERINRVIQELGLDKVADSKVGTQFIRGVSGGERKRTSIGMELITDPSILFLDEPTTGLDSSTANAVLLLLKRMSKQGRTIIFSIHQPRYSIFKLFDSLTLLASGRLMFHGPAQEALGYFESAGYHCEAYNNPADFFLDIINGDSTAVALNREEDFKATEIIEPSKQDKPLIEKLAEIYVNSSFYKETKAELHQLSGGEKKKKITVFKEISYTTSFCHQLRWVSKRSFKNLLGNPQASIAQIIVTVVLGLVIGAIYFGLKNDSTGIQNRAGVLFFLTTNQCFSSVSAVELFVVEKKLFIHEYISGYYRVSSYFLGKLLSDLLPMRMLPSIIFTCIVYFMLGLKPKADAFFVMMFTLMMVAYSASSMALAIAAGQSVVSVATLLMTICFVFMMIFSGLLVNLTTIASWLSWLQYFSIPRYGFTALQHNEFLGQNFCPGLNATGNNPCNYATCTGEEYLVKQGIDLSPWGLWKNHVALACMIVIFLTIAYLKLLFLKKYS
Experiment: vanadate-sensitive ATPase assay in ABCG2-overexpressing cell membranes; [3H]-mitoxantrone accumulation and efflux in cells
Assay type: biochemical

Q: Which IC50 does the source give for CC1(C)CCC(CN2CCN(c3ccc(C(=O)NS(=O)(=O)c4ccc(NCC5CCOCC5)c([N+](=O)[O-])c4)c(Oc4cnc5[nH]ccc5c4)c3)CC2)=C(c2ccc(Cl)cc2)C1 [venetoclax] here?
A: 4.78 µM
